In patent publication US20090270350A1, “Pyridinone Pyrazole Urea and Pyrimidinone Pyrazole Urea Derivatives” (PFIZER INC., priority 2006, published 2009):

Target: p38α (Homo sapiens, UniProt Q16539)
Assay: p38α/MK2 cascade assay
Format: biochemical
Conditions: Table 1; inhibitors preincubated with p38α for 40 minutes; phosphorylation of Hsp27 peptide by MK-2, Caliper LabChip 3000; read-out: p38a/MK2 Cascade 40 min Pre-Incuabtion (% Inhibition): IC50
Method: The ability of compounds to inhibit activated p38α was determined in a p38α/MK-2 cascade assay format. The kinase activity of p38α is determined by its ability to phosphorylate/activate nonactive MK2 (54-400). Activation of MK-2 by p38α is measured by following the phosphorylation of a MK-2 specific peptide, Hsp27 peptide (FITC-KKKALSRQLSVAA). The phosphorylation of the Hsp27 peptide was quantified using the Caliper LabChip 3000. The kinase reactions were carried out in 20 mM HEPES pH 7.5, 10 mM MgCl2, 0.0005% Tween-20, 0.01% BSA, 1 mM DTT, and 2% DMSO. The inhibitors were varied between 1000-0.05 nM, while the Hsp27 peptide substrate, MgATP, and nonactive MK-2 (54-400) were held constant at 0.5 µM, 5 µM, and 1 nM, respectively. Inhibitors were preincubated with p38α for 40 minutes prior to initiating the reaction with peptide, MgATP, and MK-2. The kinase reactions were quenched after 60 minutes by the addition of stop buffer (180 mM HEPES, 30 mM EDTA, and 0.2% Coating Reagent-3).
The above protocol assay was used to determine the IC50 values for some of the compounds in the above Examples.
IC50 values were determined for the compounds listed in Table 2, using the same p38α/MK2 cascade assay used to determine the IC50 values for the compounds in Table 1. The compounds of Table 2 were prepared using methods similar to those listed in the Examples for compounds of Table 1.

Chain of p38α (Q16539 whole entry): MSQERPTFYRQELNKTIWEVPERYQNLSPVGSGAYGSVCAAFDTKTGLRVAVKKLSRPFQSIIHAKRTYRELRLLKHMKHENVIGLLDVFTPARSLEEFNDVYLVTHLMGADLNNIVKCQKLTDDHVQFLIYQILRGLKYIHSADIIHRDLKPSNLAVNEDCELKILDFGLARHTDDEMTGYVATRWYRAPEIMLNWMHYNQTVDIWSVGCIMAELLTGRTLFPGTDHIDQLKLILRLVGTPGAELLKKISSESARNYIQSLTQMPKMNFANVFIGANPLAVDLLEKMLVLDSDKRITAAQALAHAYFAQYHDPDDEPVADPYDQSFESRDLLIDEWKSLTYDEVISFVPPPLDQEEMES

IC50 [nM]	Structure (SMILES)
266	COc1cccc(Cn2c(C)cc(OCc3ccc(F)cc3CNC(=O)Nc3cc(C(C)(C)C)nn3-c3cccc(OCCOC4CCCCO4)c3)cc2=O)c1 (stereo not drawn) [Example 34, 1-(3-tert-butyl-1-{3-[2-(tetrahydro-2H-pyran-2-yloxy)ethoxy]phenyl}-1H-pyrazol-5-yl)-3-[5-fluoro-2-({[1-(3-methoxybenzyl)-6-methyl-2-oxo-1,2-dihydropyridin-4-yl]oxy}methyl)benzyl]urea]
42.2	COc1cccc(Cn2c(C)cc(OCc3ccc(F)cc3CNC(=O)Nc3cc(C(C)(C)C)nn3-c3cccc(OC)c3)cc2=O)c1 [Example 35, 1-[3-tert-butyl-1-(3-methoxyphenyl)-1H-pyrazol-5-yl]-3-[5-fluoro-2-({[1-(3-methoxybenzyl)-6-methyl-2-oxo-1,2-dihydropyridin-4-yl]oxy}methyl)benzyl]urea]
142	COc1cccc(Cn2c(C)cc(OCc3ccccc3CNC(=O)Nc3cc(C(C)(C)C)nn3-c3cccc(OCCOC4CCCCO4)c3)cc2=O)c1 (stereo not drawn) [Example 36, 1-(3-tert-butyl-1-{3-[2-(tetrahydro-2H-pyran-2-yloxy)ethoxy]phenyl}-1H-pyrazol-5-yl)-3-[2-({[1-(3-methoxybenzyl)-6-methyl-2-oxo-1,2-dihydropyridin-4-yl]oxy}methyl)benzyl]urea]
29.3	COc1cccc(Cn2c(C)cc(OCc3ccc(F)cc3CNC(=O)Nc3cc(C(C)(C)C)nn3-c3cccc(OCCO)c3)cc2=O)c1 [Example 37, 1-{3-tert-butyl-1-[3-(2-hydroxyethoxy)phenyl]-1H-pyrazol-5-yl}-3-[5-fluoro-2-({[1-(3-methoxybenzyl)-6-methyl-2-oxo-1,2-dihydropyridin-4-yl]oxy}methyl)benzyl]urea]
31.1	COc1cccc(Cn2c(C)cc(OCc3ccccc3CNC(=O)Nc3cc(C(C)(C)C)nn3-c3cccc(OCCO)c3)cc2=O)c1 [Example 38, 1-{3-tert-butyl-1-[3-(2-hydroxyethoxy)phenyl]-1H-pyrazol-5-yl}-3-[2-({[1-(3-methoxybenzyl)-6-methyl-2-oxo-1,2-dihydropyridin-4-yl]oxy}methyl)benzyl]urea]
7.3	COc1cccc(Cn2c(C)cc(OCc3ccc(F)cc3CNC(=O)Nc3cc(C(C)(C)C)nn3-c3cccc(OCCO)c3)c(Cl)c2=O)c1 [Example 39, 1-{3-tert-butyl-1-[3-(2-hydroxyethoxy)phenyl]-1-pyrazol-5-yl}-3-[2-({[3-chloro-1-(3-methoxybenzyl)-6-methyl-2-oxo-1,2-dihydropyridin-4-yl]oxy}methyl)-5-fluorobenzyl]urea]
21.6	COc1cccc(Cn2c(C)cc(OCc3ccc(F)cc3CNC(=O)Nc3cc(C(C)(C)C)nn3-c3cccc(OCCOC4CCCCO4)c3)c(Cl)c2=O)c1 (stereo not drawn) [Example 41, 1-(3-tert-butyl-1-{3-[2-(tetrahydro-2H-pyran-2-yloxy)ethoxy]phenyl}-1H-pyrazol-5-yl)-3-[2-({[3-chloro-1-(3-methoxybenzyl)-6-methyl-2-oxo-1,2-dihydropyridin-4-yl]oxy}methyl)-5-fluorobenzyl]urea]
5.8	COc1cccc(Cn2c(C)cc(OCc3ccccc3CNC(=O)Nc3cc(C(C)(C)C)nn3-c3cccc(OC)c3)c(Cl)c2=O)c1 [Example 44, 1-[3-tert-butyl-1-(3-methoxyphenyl)-1H-pyrazol-5-yl]-3-[2-({[3-chloro-1-(3-methoxybenzyl)-6-methyl-2-oxo-1,2-dihydropyridin-4-yl]oxy}methyl)benzyl]urea]
6.2	COc1cccc(Cn2c(C)cc(OCc3ccc(F)cc3CNC(=O)Nc3cc(C(C)(C)C)nn3-c3ccc(Cl)c(O)c3)c(Cl)c2=O)c1 [Example 45, 1-[3-tert-butyl-(4-chloro-3-hydroxyphenyl)-1H-pyrazol-5-yl]-3-[2-({[3-chloro-1-(3-methoxybenzyl)-6-methyl-2-oxo-1,2-dihydropyridin-4-yl]oxy}methyl)-5-fluorobenzyl]urea]
4	COc1cccc(Cn2c(C)cc(OCc3ccc(F)cc3CNC(=O)Nc3cc(C(C)(C)C)nn3-c3ccc(O)c(Cl)c3)c(Cl)c2=O)c1 [Example 46, 1-[3-tert-butyl-1-(3-chloro-4-hydroxyphenyl)-1H-pyrazol-5-yl]-3-[2-({[3-chloro-1-(3-methoxybenzyl)-6-methyl-2-oxo-1,2-dihydropyridin-4-yl]oxy}methyl)-5-fluorobenzyl]urea]
12.2	COc1cccc(Cn2c(C)cc(OCc3ccccc3CNC(=O)Nc3cc(C(C)(C)C)nn3-c3ccc(Cl)c(O)c3)c(C)c2=O)c1 [Example 47, 1-[3-tert-butyl-1-(4-chloro-3-hydroxyphenyl)-1H-pyrazol-5-yl]-3-[2-({[1-(3-methoxybenzyl)-3,6-dimethyl-2-oxo-1,2-dihydropyridin-4-yl]oxy}methyl)benzyl]urea]
6.4	COc1cccc(Cn2c(C)cc(OCc3ccccc3CNC(=O)Nc3cc(C(C)(C)C)nn3-c3cccc(OCCO)c3)c(C)c2=O)c1 [Example 48, 1-{3-tert-butyl-1-[3-(2-hydroxyethoxy)phenyl]-1H-pyrazol-5-yl}-3-[2-({[1-(3-methoxybenzyl)-3,6-dimethyl-2-oxo-1,2-dihydropyridin-4-yl]oxy}methyl)benzyl]urea]
6.5	COc1cccc(Cn2c(C)cc(OCc3ccc(F)cc3CNC(=O)Nc3cc(C(C)(C)C)nn3-c3cccc(O)c3)c(Cl)c2=O)c1 [Example 50, 1-[3-tert-butyl-1-(3-hydroxyphenyl)-1H-pyrazol-5-yl]-3-[2-({[3-chloro-1-(3-methoxybenzyl)-6-methyl-2-oxo-1,2-dihydropyridin-4-yl]oxy}methyl)-5-fluorobenzyl]urea]
5.8	COc1cccc(Cn2c(C)cc(OCc3ccccc3CNC(=O)Nc3cc(C(C)(C)C)nn3-c3ccc(O)cc3)c(Cl)c2=O)c1 [Example 51, 1-[3-tert-butyl-1-(4-hydroxyphenyl)-1H-pyrazol-5-yl]-3-[2-({[3-chloro-1-(3-methoxybenzyl)-6-methyl-2-oxo-1,2-dihydropyridin-4-yl]oxy}methyl)benzyl]urea]
6.2	COc1cccc(Cn2c(C)cc(OCc3ccccc3CNC(=O)Nc3cc(C(C)(C)C)nn3-c3cccc(O)c3)c(Cl)c2=O)c1 [Example 52, 1-[3-tert-butyl-1-(3-hydroxyphenyl)-1H-pyrazol-5-yl]-3-[2-({[3-chloro-1-(3-methoxybenzyl)-6-methyl-2-oxo-1,2-dihydropyridin-4-yl]oxy}methyl)benzyl]urea]
117	COc1ccc(Cn2c(C)cc(OCc3ccccc3CNC(=O)Nc3cc(C(C)(C)C)nn3-c3ccc(O)cc3)cc2=O)cc1 [Example 54, 1-[3-tert-butyl-1-(4-hydroxyphenyl)-1H-pyrazol-5-yl]-3-[2-({[1-(4-methoxybenzyl)-6-methyl-2-oxo-1,2-dihydropyridin-4-yl]oxy}methyl)benzyl]urea]
24.3	COc1ccc(Cn2c(C)cc(OCc3ccccc3CNC(=O)Nc3cc(C(C)(C)C)nn3-c3cccc(O)c3)cc2=O)cc1 [Example 55, 1-[3-tert-butyl-1-(3-hydroxyphenyl)-1H-pyrazol-5-yl]-3-[2-({[1-(4-methoxybenzyl)-6-methyl-2-oxo-1,2-dihydropyridin-4-yl]oxy}methyl)benzyl]urea]
39.2	COc1ccc(Cn2c(C)cc(OCc3ccccc3CNC(=O)Nc3cc(C(C)(C)C)nn3-c3ccc(O)c(Cl)c3)cc2=O)cc1 [Example 56, 1-[3-tert-butyl-1-(3-chloro-4-hydroxyphenyl)-1H-pyrazol-5-yl]-3-[2-({[1-(4-methoxybenzyl)-6-methyl-2-oxo-1,2-dihydropyridin-4-yl]oxy}methyl)benzyl]urea]
9.3	COc1ccc(Cn2c(C)cc(OCc3ccccc3CNC(=O)Nc3cc(C(C)(C)C)nn3-c3cccc(OCCO)c3)c(Cl)c2=O)cc1 [Example 57, 1-{3-tert-butyl-1-[3-(2-hydroxyethoxy)phenyl]-1H-pyrazol-5-yl}-3-[2-({[3-chloro-1-(4-methoxybenzyl)-6-methyl-2-oxo-1,2-dihydropyridin-4-yl]oxy}methyl)benzyl]urea]

Structure (SMILES)	IC50 [nM]
COc1cccc(Cn2c(C)cc(OCc3ccc(F)cc3CNC(=O)Nc3cc(C(C)(C)C)nn3-c3ccc(O[Si](C)(C)C(C)(C)C)c(Cl)c3)c(Cl)c2=O)c1 [Example 42, 1-[3-tert-butyl-1-(4-{[tert-butyl(dimethyl)silyl]oxy}-3-chlorophenyl)-1H-pyrazol-5-yl]-3-[2-({[3-chloro-1-(3-methoxybenzyl)-6-methyl-2-oxo-1,2-dihydropyridin-4-yl]oxy}methyl)-5-fluorobenzyl]urea]	116
COc1cccc(Cn2c(C)cc(OCc3ccc(F)cc3CNC(=O)Nc3cc(C(C)(C)C)nn3-c3ccc(Cl)c(O[Si](C)(C)C(C)(C)C)c3)c(Cl)c2=O)c1 [Example 43, 1-[3-tert-butyl-1-(3-{[tert-butyl(dimethyl)silyl]oxy}-4-chlorophenyl)-1H-pyrazol-5-yl]-3-[2-({[3-chloro-1-(3-methoxybenzyl)-6-methyl-2-oxo-1,2-dihydropyridin-4-yl]oxy}methyl)-5-fluorobenzyl]urea]	43.1
